Measurements taken from patent US20040147562A1, “Methods of treating conditions associated with an EDG-1 receptor” (priority 2002, published 2004).

How the values were obtained:
[1] = system: human umbilical vein endothelial cells; assay: S1P induced calcium response in human umbilical vein endothelial cells; format: cell-based; conditions: HUVEC; FIG. 4, 5
[2] = system: mouse T cells; assay: Mouse T cell migration in Transwell chambers with matrigel; format: cell-based; conditions: in the presence of S1P; FIG. 14
Method: To further elucidate the role of the Edg-1 receptor in lymphocyte trafficking, migration of mouse T cells was analyzed in both in vitro and in vivo models. Migration of mouse T cells was first tested in Transwell chambers (Costar, Cambridge, Mass.) with polycarbonate fibers having a pore width of 8 μm, separated by a layer of matrigel. Stimulants S1P or exodus-2 were separately added to the bottom chamber. The effects of exodus-2 were tested alone, with S1P, and with S1P and Edg-1 antagonists 101 and 102.

[3] = target: T1, human Edg-1 receptors (Homo sapiens, UniProt P21453); assay: Intracellular calcium (FLIPR) assay, HTC cells expressing Edg-1; format: cell-based; set-up: Edg 1 IC50 μM; fused on or other part: in the chimera reading: the third intracellular loop (i3) of Edg-3 (S1PR3) in place of Edg-1's own
Method: (§1) The compounds were tested in HTC cells expressing human Edg-1 receptors. […] The compounds were tested in this recombinant system first, and subsequently tested in cell lines expressing Edg-1 (in addition to other Edg receptors).
(§2) […] receptors such as Edg-1, couple to calcium effector pathways, and result in increases in intracellular calcium following receptor activation (An, 1998, J. Cell Biochem. Supp 30-31:147-157). This biological response lends itself to a very efficient, high-throughput screen using a Fluorescence Imaging Plate Reader (FLIPR; Molecular Devices, Sunnyvale, Calif.). The FLIPR system is a real-time, cell-based assay system with continuous fluorescence detection using a cooled CCD camera. The FLIPR system was used to develop an Edg-1 receptor screen. Rat hepatoma cells stably expressing Edg-1/3i3 chimera or Edg-1 and Gqi were plated on 384-well plates and loaded with a calcium dye loading kit (Molecular Devices, Sunnyvale, Calif.) for 1 hour at room temperature. Cells were then placed on the FLIPR^384 (Molecular Devices, Sunnyvale, Calif.) and excited by an argon laser at 488 nm. The data for the entire 384-well plate was updated every second. An integrated robotic pipettor allowed for simultaneous compound addition into each individual well in the plate.

[4] = target: T2, Edg-5 (Homo sapiens, UniProt O95136); assay: Intracellular calcium (FLIPR) assay, HTC cells expressing Edg-5; format: cell-based
T2 construct: expressed in transfected cells; host or cells: HTC rat hepatoma cells

[5] = target: T3, Edg-2 (Homo sapiens, UniProt Q92633); assay: Intracellular calcium (FLIPR) assay, HTC cells expressing Edg-2; format: cell-based
T3 construct: expressed in transfected cells; host or cells: HTC rat hepatoma cells

[6] = system: murine CD4 T cells; assay: Murine CD4 T cell chemotactic response to exodus-2; format: cell-based
Method: To assess this modulation and to test the effects of Edg-1 agonists and antagonists on this effect, murine CD4 T cells chemotactic responses to exodus-2 were tested in the presence of S1P and the Edg-1 agonist 104. These experiments were performed according to the migration and invasion assay protocols described in Section 7.12, below.
The effects of Edg-1 antagonists on S1P regulation of the chemotactic response to exodus-2 were also assessed. This experiment was performed according to the migration and invasion assay protocols described in Section 7.12, below. […] Thus, these Edg-1 antagonists can antagonize both aspects of the regulation by S1P of exodus-2-mediated chemotaxis.
(§3) Cells were plated in a 24 well format using Fluoroblok filter insert plates ([…] pore size) or Fluoroblok matrigel coated filter insert plates (Becton Dickinson, San Diego, Calif.). The assay was a modified Boyden Chamber assay in which a cell suspension (1×10^5 cells/ml) was prepared in serum free medium and added to the top chamber. LPA or S1P (doses ranged from 0.1-10 μM in serum free medium) was added to the bottom chamber. Following a 20-24 hour incubation period, the number of cells migrating or invading into the lower chamber was quantitated by transferring the filter insert into a fresh 24-well plate containing 4 μg/ml calcein AM (Molecular Probes, Sunnyvale, Calif.) in Hank's Balanced Salt Solution and staining for one hour.
(§4) Detection was via fluorescent readout at 450 nm excitation/530 nm emission using a fluorimeter. The level of fluorescence correlated with cell number.

[7] = system: Null/Gqi; assay: Intracellular calcium (FLIPR) assay, Null/Gqi control cells; format: cell-based; conditions: Rattus norvegicus; agonist
[8] = target: T1, human Edg-1 receptors; assay: Intracellular calcium (FLIPR) assay, HTC cells expressing Edg-1; format: cell-based; set-up: expressed in transfected cells; host or cells: HTC rat hepatoma cells; conditions: agonist; Edg 1/Gqi
Method: as §1, §2

[9] = system: human peripheral blood mononuclear cells; assay: Migration of human peripheral blood mononuclear cells; format: cell-based; conditions: chemoattractant; FIG. 9, 13
Method: S1P is a strong chemoattractant to human PBMCs. […] Several migration assays were performed to test this hypothesis and to determine the effect of Edg-1 agonists and antagonists on S1P mediated chemotaxis. The migration assays were performed according to the protocol described in Section 7.12, below. The results of theses assays are presented in FIG. 6, FIG. 7, FIG. 8, FIG. 9 and FIG. 13.
as §3, §4
Human PBMCs are isolated from the buffy coats of healthy donors from the Stanford Blood Center. […]

[10] = concentrations as high as 20 μM
[11] = agonist, concentrations as high as 25 μM

T2 sequence (O95136 whole entry): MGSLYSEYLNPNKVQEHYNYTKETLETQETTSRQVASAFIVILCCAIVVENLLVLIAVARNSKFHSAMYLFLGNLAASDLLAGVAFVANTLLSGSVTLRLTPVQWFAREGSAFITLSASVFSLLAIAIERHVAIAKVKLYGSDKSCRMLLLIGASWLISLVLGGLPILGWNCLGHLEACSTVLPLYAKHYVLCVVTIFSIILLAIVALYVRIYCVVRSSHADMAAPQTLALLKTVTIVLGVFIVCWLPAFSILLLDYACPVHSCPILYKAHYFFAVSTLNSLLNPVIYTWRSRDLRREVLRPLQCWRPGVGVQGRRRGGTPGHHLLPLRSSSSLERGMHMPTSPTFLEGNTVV
T3 sequence (Q92633 whole entry): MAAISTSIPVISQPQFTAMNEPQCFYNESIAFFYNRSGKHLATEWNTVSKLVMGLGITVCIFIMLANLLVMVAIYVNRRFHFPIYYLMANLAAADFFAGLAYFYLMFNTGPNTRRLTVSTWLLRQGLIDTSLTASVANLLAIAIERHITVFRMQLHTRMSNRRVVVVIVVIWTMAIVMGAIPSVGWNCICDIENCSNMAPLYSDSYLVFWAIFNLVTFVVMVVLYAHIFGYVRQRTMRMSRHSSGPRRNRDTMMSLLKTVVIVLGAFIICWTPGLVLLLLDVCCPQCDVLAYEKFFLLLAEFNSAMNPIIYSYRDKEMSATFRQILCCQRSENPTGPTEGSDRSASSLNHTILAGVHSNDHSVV
T1 sequence (P21453 whole entry, the tested form may be a part): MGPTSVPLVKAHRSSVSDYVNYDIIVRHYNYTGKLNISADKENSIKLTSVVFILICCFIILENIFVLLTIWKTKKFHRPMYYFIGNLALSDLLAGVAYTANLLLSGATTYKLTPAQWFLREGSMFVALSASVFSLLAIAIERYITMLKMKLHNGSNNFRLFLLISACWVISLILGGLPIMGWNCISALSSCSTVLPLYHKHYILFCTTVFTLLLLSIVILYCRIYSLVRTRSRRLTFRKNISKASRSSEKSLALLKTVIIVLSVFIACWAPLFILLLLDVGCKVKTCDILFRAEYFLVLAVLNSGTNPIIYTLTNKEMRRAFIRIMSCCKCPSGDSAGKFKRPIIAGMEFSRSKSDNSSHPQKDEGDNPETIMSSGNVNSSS

SMILES | inhibition of S1P induced calcium responses [1] | effect on exodus-2-stimulated T cell migration [2] | melting point | inhibition of Edg-1 receptors ([3]; FIG. 1-3) | IC50 ([3]; Table 2, inhibition of S1P response, read-out: Edg 1 IC50) | IC50 ([4]; Table 2, S1P-stimulated) | inhibition of S1P-stimulated calcium increases in HTC cells expressing Edg-5 [4, 10] | IC50 ([5]; Table 2, LPA-stimulated) | inhibition of LPA-stimulated calcium increases in HTC cells expressing Edg-2 [5, 10] | effect on S1P-mediated desensitization of the chemotactic response to exodus-2 ([6]; high concentrations of S1P, FIG. 12) | effect on S1P-mediated stimulation of the chemotactic response to exodus-2 ([6]; moderate concentrations of S1P, FIG. 12) | EC50 [7] | EC50 [8] | EC50 ([4]; agonist) | calcium response in HTC cells expressing Edg-5 [4, 11] | EC50 ([5]; agonist) | calcium response in HTC cells expressing Edg-2 [5, 11] | migration of human peripheral blood mononuclear cells [9] | concentration needed relative to S1P for same effect on chemotactic response to exodus-2 ([6]; FIG. 11) | effect on chemotaxis of murine CD4 T cells to exodus-2 ([6]; low and high concentrations desensitize, moderate stimulate, FIG. 11)
O=C(c1cccnc1)N1N=C(c2ccc(Br)cc2)CC1(O)C(F)(F)F (centres unmarked) [Compound 102] | inhibits S1P induced calcium responses in a dose-dependent manner | enhance exodus-2-stimulated migration | 150 to 152 °C | specifically inhibited | 1.69 µM | > 20 µM | did not inhibit | > 20 µM | did not inhibit | reverse S1P-mediated desensitization | inhibit S1P-mediated stimulation |  |  |  |  |  |  |  |  | 
COc1cc(C(=O)c2cc(Cl)ccc2N)cc(OC)c1OC [Compound 104, (2-Amino-5-chlorophenyl)-(3,4,5-trimethoxyphenyl)methanone] |  |  |  |  |  |  |  |  |  |  |  | > 25 µM | 10 µM | > 25 µM | did not elicit a calcium response | > 25 µM | did not elicit a calcium response | stimulates migration of human peripheral blood mononuclear cells at micromolar concentrations | higher concentrations of 104 than S1P are required | bell-shaped dose dependant response curve
